System: HEK293T viability, CellTiter-Glo ATP luminescence, 72 h
Assay: HEK293T cell cytotoxicity, dose response, cytotoxicity control, CellTiter-Glo luminescence, cherry-pick, set 3 (AID 720588);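 note: potency for luminescence loss meaning cytotoxic compounds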

C[C@@H]1O[C@@H](O[C@H]2C[C@@H](O)[C@]3(CO)[C@@H]4C(CC[C@]3(O)C2)[C@@]2(O)CC[C@H](C3COC(=O)C3)[C@@]2(C)C[C@H]4O)[C@H](O)[C@H](O)[C@H]1O (stereo partly specified)
AC35: 2.43 µM

CC(C)(C)C(=O)Cn1ncc(Cl)c(Cl)c1=O
AC35: 14.8 µM

Cc1ccc(/C=N/Nc2ccnc3cc(Cl)ccc23)c(C)c1
AC35: 10.6 µM

COC1C(O)C(C)OC(OC2CCC3(C)C(CCC4C3C(O)CC3(C)C(C5=CC(=O)OC5)CCC43O)C2)C1O (stereo unspecified)
AC35: 0.244 µM

CCOC(=O)[C@]12Cc3ccc(C)cc3[C@H]1N(C1CCCCC1)C(=O)c1ccccc12
AC35: 9.24 µM

O=C(Sc1cccc2cccnc12)c1ccccc1Br
AC35: 7.7 µM

COc1ccc(S(=O)(=O)Nc2ccc3c(c2)C(=O)N([C@H](C)CO)C[C@@H](C)[C@@H](CN(C)CC2CCCCC2)OCCCC[C@H](C)O3)cc1
AC35: 14.1 µM

COC(=O)C1=C(C)N(Cc2ccccc2C(F)(F)F)C(=NCc2ccc(OC)cc2)NC1c1ccc(C(F)(F)F)cc1 (stereo unspecified)
AC35: 9.47 µM

O=c1cc(-c2ccccc2)oc2ccc3ccccc3c12
AC35: 1.57 µM

C[C@@H]1CN([C@@H](C)CO)C(=O)c2cc(NS(=O)(=O)c3ccc(F)cc3)ccc2O[C@@H]1CN(C)Cc1ccc(C(=O)Nc2ccccc2N)cc1
AC35: 7.54 µM

CN(C)CC1CCC/C(=C\c2ccc(OC(=O)c3ccc(Cl)cc3)cc2)C1=O (stereo unspecified)
AC35: 11.3 µM

CCCCCCCCn1c2c(c(=N)c3c1CCC3)CCCC2
AC35: 3.51 µM

C[C@@H]1CN([C@@H](C)CO)S(=O)(=O)c2ccc(C#CC(C)(C)O)cc2O[C@H]1CN(C)Cc1ccc(-c2ccccc2)cc1
AC35: 6.7 µM

CCN1/C(=C/C(C)=C/c2sc3ccccc3[n+]2CC)Sc2ccccc21
AC35: 0.301 µM

Cc1cccc(/C=N/Nc2ccc3ccccc3n2)c1
AC35: 11.2 µM

CCCCc1c(Cc2ccccc2)ncn1CCc1ccccc1OC
AC35: 20.7 µM

COc1ccc(-c2cc(CNc3nc(NC(C)C)nc4cc(-c5ccccc5)sc34)on2)cc1
AC35: 12.5 µM

O=C(NC[C@@H]1N[C@@H](CO)[C@H]1c1ccc(C2=CCCCC2)cc1)c1cccc(F)c1
AC35: 10.1 µM

O=C(CCc1ccccc1)NC(c1cccs1)c1cc(Cl)c2cccnc2c1O (stereo unspecified)
AC35: 7.93 µM

COc1ccccc1-c1ccc(OCCCN2CCC(C(O)(c3ccccc3)c3ccccc3)CC2)cc1
AC35: 10.3 µM

CN(C[C@H]1N[C@@H](CO)[C@@H]1c1ccc(C2=CCCC2)cc1)C(=O)c1ccc(F)cc1
AC35: 5.64 µM

CC(=O)OC1CC(OC2C(O)CC(OC3C(O)CC(OC4CCC5(C)C(CCC6C5CCC5(C)C(C7=CC(=O)OC7)C(O)CC65O)C4)OC3C)OC2C)OC(C)C1OC1OC(CO)C(O)C(O)C1O (stereo unspecified)
AC35: 0.58 µM

Cc1ccc(S(=O)(=O)Nc2ccc3c(c2)C(=O)N([C@H](C)CO)C[C@H](C)[C@@H](CN(C)Cc2ccc(C(F)(F)F)cc2)OCCCC[C@H](C)O3)cc1
AC35: 8.51 µM

O=C(C[C@@H]1C[C@H]2c3cc(NS(=O)(=O)c4ccc(F)cc4)ccc3O[C@H]2[C@H](CO)O1)NCc1ccc(-c2ccccc2)cc1
AC35: 18.7 µM

CCc1nc(N)nc(N)c1-c1ccc(Cl)cc1
AC35: 15.9 µM

COC(=O)C1=C(C)N(Cc2cccc(C(F)(F)F)c2)C(=NCc2ccc(OC)cc2)NC1c1cccc(F)c1 (stereo unspecified)
AC35: 4.96 µM

C[C@@H]1CN([C@H](C)CO)S(=O)(=O)c2ccc(C#CC(C)(C)O)cc2O[C@H]1CN(C)Cc1ccc(-c2ccccc2)cc1
AC35: 7.28 µM

N#C[C@H]1[C@H](c2ccc(C#Cc3ccccc3F)cc2)[C@@H](CO)N1C(=O)C1CCCCC1
AC35: 13.2 µM

c1ccc(Nc2nnc(-c3ccc4c(c3)OCO4)o2)cc1
AC35: 3.33 µM

CCN1C/C(=C/c2ccc(N3CCOCC3)cc2)C(=O)/C(=C/c2ccc(N3CCOCC3)cc2)C1
AC35: 9.96 µM

Cc1cc2c(C(C)C)c(O)c(O)c(C=O)c2c(O)c1-c1c(C)cc2c(C(C)C)c(O)c(O)c(C=O)c2c1O
AC35: 9.42 µM

COc1ccccc1NC(=O)N1CCCCN2[C@H](CO)[C@H](c3ccc(-c4cccc(C)c4)cc3)[C@H]2C1
AC35: 10.4 µM

CCN1/C(=C/C=C/c2oc3ccc(-c4ccccc4)cc3[n+]2CC)Oc2ccc(-c3ccccc3)cc21
AC35: 4.89 µM

Cc1ccc(C)c(S(=O)(=O)N2CCN(c3ncnc4sccc34)CC2)c1
AC35: 4.95 µM

CN(C)c1ccc(N=Nc2nc3ccccc3n2C)cc1
AC35: 12.5 µM

Cc1ccccc1S(=O)(=O)N1CC[C@@H]2[C@@H](CO)Nc3ccc(-c4ccc(C#N)cc4)cc3[C@@H]21
AC35: 14.8 µM

C[C@@H]1CN([C@@H](C)CO)C(=O)c2cc(NS(=O)(=O)c3ccc(Cl)cc3)ccc2O[C@@H]1CN(C)Cc1ccc(C(=O)Nc2ccccc2N)cc1
AC35: 9.95 µM

O=C1NC(=S)NC(=O)C1=Cc1cccn1-c1ccc(O)cc1
AC35: 19.5 µM

CC(=NNc1cc(C)c2ccccc2n1)c1ccccn1
AC35: 2 µM

Cc1ccc(S(=O)(=O)Nc2ccc3c(c2)C(=O)N([C@@H](C)CO)C[C@@H](C)[C@@H](CN(C)Cc2ccc(C(=O)Nc4ccccc4N)cc2)O3)cc1
AC35: 7.11 µM

NC(Cc1ccc(C(F)(F)F)cc1)c1csc(NC(=O)Nc2ccccc2Cc2ccccc2)n1 (stereo unspecified)
AC35: 12.4 µM

CC(=O)OC1CC(OC2C(O)CC(OC3C(O)CC(OC4CCC5(C)C(CCC6C5CC(O)C5(C)C(C7=CC(=O)OC7)CCC65O)C4)OC3C)OC2C)OC(C)C1OC1OC(CO)C(O)C(O)C1O (stereo unspecified)
AC35: 0.182 µM

Oc1[nH]c2ccc(Br)cc2c1N=NC(=S)N1CCOCC1
AC35: 4.31 µM

N#C[C@@H]1[C@H](c2ccc(C#Cc3ccccc3F)cc2)[C@@H](CO)N1C(=O)c1cccnc1
AC35: 25.4 µM

CN1c2ccc(-c3ccc(C#N)cc3)cc2[C@H]2[C@H](CCN2S(=O)(=O)c2cccc(F)c2)[C@H]1CO
AC35: 13.4 µM

C[C@@H]1O[C@@H](O[C@@H]2C=C3CC[C@@H]4C(CC[C@]5(C)[C@@H](c6ccc(=O)oc6)CC[C@]45O)[C@@]3(C)CC2)[C@H](O)[C@H](O)[C@H]1O (stereo partly specified)
AC35: < 0.011 µM

Cn1ccc2cc(-c3ccc4ncnc(NCc5cccs5)c4c3)ccc21
AC35: 9.58 µM

C[C@H]1CN([C@@H](C)CO)S(=O)(=O)c2ccc(C#Cc3ccncc3)cc2O[C@@H]1CN(C)C(=O)Nc1ccc2c(c1)OCO2
AC35: 2.99 µM

C[C@H]1CN([C@@H](C)CO)C(=O)c2cc(NS(=O)(=O)c3ccc(Cl)cc3)ccc2O[C@H]1CN(C)Cc1ccc(Cl)c(Cl)c1
AC35: 16.5 µM

CN(CCO)c1ccc(/C=N/Nc2nncc3ccccc23)cc1
AC35: 13 µM

O=C1NC(=O)N(c2ccccc2)C(=O)/C1=C\C=C\c1ccccc1
AC35: 19.1 µM

CN(C[C@H]1N[C@@H](CO)[C@@H]1c1ccc(C2=CCCC2)cc1)C(=O)c1cccc(F)c1
AC35: 4.63 µM

C[C@@H]1CN([C@@H](C)CO)C(=O)Cc2cc(NC(=O)Nc3ccc(C(F)(F)F)cc3)ccc2O[C@@H]1CN(C)Cc1ccc(C(=O)Nc2ccccc2N)cc1
AC35: 17.4 µM

Cc1ccc(/C=N/Nc2ccc3ccccc3n2)o1
AC35: 15.5 µM

Cc1cc(C(=O)Nc2ccc3c(c2)C(=O)N(C)[C@@H]2CC[C@@H](CC(=O)NCc4ccc(-c5ccccc5)cc4)O[C@H]2CO3)no1
AC35: 24.5 µM

O=C1NC(=O)N(Cc2ccccc2)C(=O)/C1=C\C=C\c1ccco1
AC35: 12.9 µM

C[C@H]1CN([C@@H](C)CO)S(=O)(=O)c2ccc(C#Cc3ccncc3)cc2O[C@@H]1CN(C)S(=O)(=O)c1ccccc1
AC35: 12.3 µM

C[C@]12CCC3C(CCC4=CC(O)CC[C@@]43/C=N/O)C1(O)CCC2C1=CC(=O)OC1 (stereo partly specified)
AC35: 0.694 µM

C[C@@H]1CN([C@H](C)CO)C(=O)Cc2cc(NC(=O)CCCCCC(=O)Nc3ccccc3N)ccc2O[C@@H]1CN(C)CC1CCCCC1
AC35: 20.1 µM

C=C1C(=O)[C@@]23[C@H](O)C[C@@H]4C(C)(C)CC[C@H](O)[C@@]4(C)[C@@H]2CC[C@@H]1[C@H]3O
AC35: 6.9 µM

Nc1nc(=S)c2[nH]cnc2[nH]1
AC35: 5.79 µM

C[C@H]1CN([C@@H](C)CO)C(=O)c2cc(N(C)C)ccc2O[C@@H]1CN(C)Cc1ccc(C(=O)Nc2ccccc2N)cc1
AC35: 24.8 µM

CCCCCCCCCCCCCCCCCCNc1ccn(C2OC(COP(=O)(O)OCC3OC(n4cc(F)c(=O)[nH]c4=O)CC3O)C(O)C2O)c(=O)n1 (stereo unspecified)
AC35: 6.6 µM

C[C@H](CO)N1C[C@H](C)[C@H](CN(C)Cc2ccc(C(=O)Nc3ccccc3N)cc2)Oc2c(cccc2N(C)C)C1=O
AC35: 11.3 µM

Cc1cc(C)c2sc(NNC(=O)c3ccc(S(=O)(=O)N4CCc5ccccc5C4)cc3)nc2c1
AC35: 5.13 µM

CC(=O)Oc1ccc(-c2ccc(C(=O)Nc3cccc(S(=O)(=O)N4CCOCC4)c3)cc2)cc1
AC35: 0.274 µM

C/C(=N\NC(=O)c1n[nH]c2c1CCC2)c1cccs1
AC35: 10.8 µM

O=C(O)c1ccc(N/N=C/c2ccc3c(c2)OCO3)cc1
AC35: 7.33 µM

O=C1/C(=C\c2ccccc2)CN(C(=O)CCN2CCCCC2)C/C1=C/c1ccccc1
AC35: 5.13 µM

O=C1c2ccccc2C(=O)c2cc(N3CCCCC3)ccc21
AC35: 6.31 µM

COC(=O)C[C@H]1CC[C@@H]2[C@H](COc3ccc(NC(=O)Nc4cccc(Cl)c4)cc3C(=O)N2C)O1
AC35: 17.8 µM

C[C@H]1CN([C@@H](C)CO)S(=O)(=O)c2ccc(C#CC(C)(C)O)cc2O[C@@H]1CN(C)Cc1ccc(-c2ccccc2)cc1
AC35: 3.6 µM

CCCN1C/C(=C/c2ccc3c(c2)OCO3)C(=O)/C(=C/c2ccc3c(c2)OCO3)C1
AC35: 21.2 µM

COc1ccc(-c2cnc3c(NC=O)cc(-c4ccccc4OC)cn23)cc1OC
AC35: 9.05 µM

O=C1Nc2cc(C(=O)NCCN3CCCCCC3)ccc2S/C1=C\c1ccccc1
AC35: 11.7 µM

O=C1NC(=O)N(Cc2ccco2)C(=O)/C1=C/C=C/c1ccco1
AC35: 13.7 µM

CC1(C)N=C(N)N=C(N)N1c1ccc(CCCCc2ccccc2)cc1
AC35: 3.5 µM

CCN1CCS/C1=C\C=C\C1=[N+](CC)CCS1
AC35: 11.2 µM

O=C(C[C@H]1C[C@H]2c3cc(NS(=O)(=O)c4ccc(F)cc4)ccc3O[C@H]2[C@H](CO)O1)NCc1ccc(Oc2ccccc2)cc1
AC35: 16 µM

Cc1cccc(/C=C(\c2nc3ccccc3[nH]2)S(=O)(=O)c2ccccc2)c1
AC35: 8.44 µM

COc1ccc(NC(=O)N2CCCCN3[C@@H](CO)[C@H](c4ccc(C5=CCCCC5)cc4)[C@@H]3C2)cc1
AC35: 10 µM

CCCCCCCCNC(C)C(O)c1ccc(SC(C)C)cc1 (stereo unspecified)
AC35: 12.2 µM

Cc1ccc(S(=O)(=O)Nc2ccc3c(c2)C(=O)N([C@@H](C)CO)C[C@H](C)[C@@H](CN(C)Cc2ccc(C(F)(F)F)cc2)OCCCC[C@@H](C)O3)cc1
AC35: 12.8 µM

CCc1nc(N)nc(N)c1-c1ccc(Cl)c(N=[N+]=[N-])c1
AC35: 8.98 µM

CO[C@H]1CN(C)C(=O)c2cc(NC(=O)c3ccc(Oc4ccccc4)cc3)ccc2OC[C@H](C)NC[C@@H]1C
AC35: 14.5 µM

CC1=NN(c2ccccc2)C(=O)/C1=C\C=C\c1ccccc1
AC35: 19.6 µM

From PubChem BioAssay AID720588 (Broad Institute, 2013)
